The numbers were not newly measured in patent EP4640072A1, “FLEECE MATERIALS TREATED WITH AN ION-PAIRING AGENT AND ORAL PRODUCTS COMPRISING FLEECE MATERIALS TREATED WITH AN ION-PAIRING AGENT” (Nicoventures Trading Limited, priority 2024, dated 2025), which cites them from elsewhere.

For data set [1] the following is noted: lipophilicity of the organic acid; values obtained from PubChem or calculated.
Assay in data set [2]: not given
The source holds these as a separate data set.

A further data set relates to human buccal tissue. To be noted: nicotine solution at pH = 6 relative to nicotine solution at pH 8.1; perfusion cell.

Consider `CC(C)[C@@H]1CC[C@@H](C)C[C@H]1OC(=O)CCC(=O)O` [monomenthyl succinate], for which, in data set [1], the “log(P)*” value is 3.
For the compound ethyl benzoic acid, the “log(P)*” value in data set [1] is 2.9.
Take `O=C(/C=C/c1ccc(O)c(O)c1)O[C@@H](C(=O)O)[C@@H](O)C(=O)O` [Caftaric acid]: the “log(P)*” value in data set [1] is given as 1.2.
Consider `COC(=O)/C=C/C(C)=C\C=C\C(C)=C\C=C\C=C(C)\C=C\C=C(C)\C=C\C(=O)O` [bixin, (2E,4E,6E,8E,10E,12E,14E,16Z,18E)-20-methoxy-4,8,13,17-tetramethyl-20-oxoicosa-2,4,6,8,10,12,14,16,18-nonaenoic acid], for which the solubility entry was “soluble in fats and alcohols but insoluble in water”. Besides, the chemical stability entry (when isolated, converts via isomerization into trans-bixin (β-bixin)) is “chemically unstable when isolated”.
As to `CC(/C=C/C=C(C)/C=C/C(=O)O)=C\C=C\C=C(C)\C=C\C=C(C)\C=C\C(=O)O` (stereo in doubt) [norbixin, (2E,4E,6E,8E,10E,12E,14E,16E,18E)-4,8,13,17-tetramethylicosa-2,4,6,8,10,12,14,16,18-nonaenedioic acid], the solubility result is recorded as “water soluble”.
`CCCCCCCS(=O)(=O)O` [1-heptanesulfonic acid]: the “log(P)*” value in data set [1] was 2.0.
With isopropyl benzoic acid, in data set [1], the “log(P)*” value is on record as 3.5.
`CN1CCCC1c1cccnc1` (stereo not shown) [nicotine]: the “log Kα1” value in data set [2] (pyridine ring nitrogen) is 3.41. In addition, in data set [2] (pyrrolidine ring nitrogen), the “log Ka2” value was 8.02. Moreover, the “factor by which the rate of diffusion across human buccal tissue was reduced” value with human buccal tissue is listed as ~ 7.
Take `CCCCCCCC(=O)O` [octanoic acid]: the “log(P)*” value in data set [1] is 3.05.
Consider `CCCCCCCCCCCC(=O)O` [dodecanoic acid], for which the “log(P)*” value in data set [1] is recorded as 4.6.
